Assay [1] concerns the target T1, GSNOR enzyme (Homo sapiens, UniProt P11766). As to the kind of experiment: GSNOR inhibition assay (rate of NADH consumption, 340 nm absorbance). Format: biochemical. Here is the method:
The following compounds were also prepared based on the methods described herein, using the appropriate starting materials. Table 2a and Table 2b also provides the % GSNOR inhibition at 20 μM of compounds described herein. […] The buffer was 100 mM phosphate buffer (pH 7.4.) The rate of NADH consumption for each well was determined by ultraviolet spectroscopy. Plates were read on a Molecular Devices Spectra Max UV/Visible Spectrophotometer/plate reader and the change in 340 nm absorbance at 25° C. was recorded for each well at 10 sec intervals over the duration of the recording period (2˜5 minutes). The rate was measured from the linear portion of the curve. Final test compound concentration was 20 μM. The mean % inhibition from 3 test compound wells and 5 control wells was measured as the percentage of the mean no compound+enzyme−the mean no enzyme, no compound control.

The target in assay [2] is T1, GSNOR enzyme. Described as above. Format: biochemical. Conditions: Table 2b; read-out: IC50 Micromolar.
Another assay concerns IL-6. As to the kind of experiment: LPS/cytokine assay (mouse inflammation assay), IL-6. Format: in vivo, CD-1 male mice. To be noted: CD-1 male mice; IP or IV; cytokine typically 6 hrs after LPS. The protocol: Table 2b also includes additional biological data of compounds described herein. The LPS/cytokine Assay was carried out in CD-1 male mice. The assay measured the level of various cytokines, including IL-6, IL-17, and IL-23, after induction by bacterial liposaccharide (LPS). Compounds were dosed by IP or IV routes of administration at varying times before and after LPS and the cytokine concentrations were measured at varying times, typically 6 hrs, after LPS by standard methods using ELISA kits.
BIOLOGICAL TESTING: Compounds 10 and 17 from Table 1 were tested in a mouse inflammation assay. Briefly, CD-1 mice were dosed with compound, 12 hrs before injecting mice I.P. with the potent cytokine inducer, bacterial lipopolysaccharide (LPS). The mice were euthanized 6 hrs after the LPS was injected and their serum prepared by standard methods. The concentration of IL-6 in the serum of each experimental animal was measured using an IL-6 ELISA kit from Enzo. The compounds tested were active.
This LPS/cytokine assay was carried out in healthy mice and measured the level of cytokine IL-6, IL-17, and 23 induction by LPS. Compounds are dosed (either orally (“p.o.”) or intravenously (“i.v.”) at varying times before and after LPS, and the cytokines are measured at varying times after LPS. The effect of the tested compounds (Table 5) on IL-6 release is shown in FIG. 7. The effect of the tested compounds (Table 6) on IL-17 an IL-23 release is shown in FIG. 11 and FIG. 12, respectively.

Assay [3] relates to non-alcoholic steatohepatitis (NASH) in male C57BL/6 mice. As to the kind of experiment: Non-alcoholic steatohepatitis (NASH) model, Streptozotocin plus 60% kcal fat diet. The format is in vivo. Conditions: for liver to body weight ratio: disease control 0.066; for decrease of percentage collagen proportion area (CPA), Masson's trichrome staining, liver: vs disease control. The protocol:
Timed pregnant mice (n=44) were selected for the study. The delivered pups were subcutaneously injected on post-natal day 2 with 200 μg of Streptozotocin and were allowed to remain with the mother until they reached the weanling age. After weanling, the male pups were selected and fed with 60% kcal fat diet (Research Diet-D12492) for next 6 weeks. All the animals were observed once daily for clinical signs and twice daily for morbidity and mortality.
Mice were dosed with vehicle, Compound 17 (at 3 mg/kg or 10 mg/kg) and 10 mg/kg of reference compound (either Obeticholic acid (OCA) or Elafibranor (ELA, GFT505)) once daily before the start of dark cycle (6:00 PM) from day 0 to 21. Animal body weight measurements were made daily for the complete duration of the experiment. Animals were dosed for 21 days (from week 9 to 12) with the test and reference compounds. Blood glucose was estimated before the treatment start, day 11 and on the termination day. Histopathology analysis including the H&E staining, Masson's trichrome staining and the Oil-red-O (ORO) staining was performed for the liver tissues.

Setting [4] is: Table 2b, test compound 20 uM, read-out: % GSNOR Inhibition at 20 uM.
Setting [5] is: Table 2a, test compound 20 μM, pH 7.4, 25° C., read-out: % Inhibit. at 20 μM.

Like-named read-outs stand apart in the source and are kept apart here.

T1 sequence (P11766 whole entry): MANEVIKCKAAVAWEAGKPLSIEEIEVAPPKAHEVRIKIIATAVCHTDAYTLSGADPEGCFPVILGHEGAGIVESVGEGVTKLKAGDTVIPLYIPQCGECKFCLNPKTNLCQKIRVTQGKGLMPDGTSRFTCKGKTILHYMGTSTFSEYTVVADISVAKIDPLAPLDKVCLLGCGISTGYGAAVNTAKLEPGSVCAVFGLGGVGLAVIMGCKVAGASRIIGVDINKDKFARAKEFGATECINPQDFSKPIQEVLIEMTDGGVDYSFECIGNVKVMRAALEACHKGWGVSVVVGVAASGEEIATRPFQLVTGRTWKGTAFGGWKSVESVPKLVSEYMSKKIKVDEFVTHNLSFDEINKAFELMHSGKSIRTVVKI

Turning to `O=C(O)CCc1ccc2c3cc(-n4ccnc4)ccc3n(-c3ccc(O)cc3)c2c1` [Compound 23], the inhibition at 20 µM at GSNOR enzyme [1] (setting [4]) worked out at 93.4%.

One may read the IC50 as the concentration that inhibits the measured activity by half. For `Cc1cc(C#N)ccc1-n1c2ccc(-n3ccnc3)cc2c2ccc(CCC(=O)O)cc21` [Compound 19], the inhibition at 20 µM at GSNOR enzyme [1] (setting [4]) is 81.3%. Also, the half-inhibitory concentration (IC50) at GSNOR enzyme [2] fell in the range of 1 to 5 µM.

As for `NC(=O)c1ccc(-n2c3ccc(-n4ccnc4)cc3c3ccc(CCC(=O)O)cc32)cc1` [Compound 20], the inhibition at 20 µM at GSNOR enzyme [1] (setting [4]) worked out at 88.9%. The “LPS/IL6 Lowest tested active” value in the assay with IL-6 is on record as 0.3 mg/kg. For the same compound, the concentration for half-maximal inhibition (IC50) on GSNOR enzyme [2] is 1 to 5 µM.

Turning to `NC(=O)c1ccc(-n2c3cc(CNc4ncco4)ccc3c3ccc(C(=O)O)cc32)c([N+](=O)[O-])c1` [Compound I1, 9-(4-carbamoyl-2-nitrophenyl)-7-((oxazol-2-ylamino)methyl)-9H-carbazole-2-carboxylic acid], the inhibition at 20 µM at GSNOR enzyme [1] (setting [5]) turned out to be 0%.

For `N#Cc1ccc(-n2c3cc(CNc4nccs4)ccc3c3ccc(C(=O)O)cc32)c([N+](=O)[O-])c1` [Compound G1, 9-(4-cyano-2-nitrophenyl)-7-((thiazol-2-ylamino)methyl)-9H-carbazole-2-carboxylic acid], on GSNOR enzyme [1] (setting [5]), the inhibition at 20 µM amounted to 15%.

As for `N#Cc1ccc(-n2c3cc(CNc4ncco4)ccc3c3ccc(C(=O)O)cc32)c([N+](=O)[O-])c1` [Compound H1, 9-(4-cyano-2-nitrophenyl)-7-((oxazol-2-ylamino)methyl)-9H-carbazole-2-carboxylic acid], on GSNOR enzyme [1] (setting [5]), the inhibition at 20 µM came out at 0%.

Regarding `CSc1ccc(C(=O)/C=C/c2cc(C)c(OC(C)(C)C(=O)O)c(C)c2)cc1` [Elafibranor, reference compound], the NAS in assay [3] (10 mg/kg) is given as 2.67. For the same compound, the “ORO (Oil-Red-O) steatosis score relative to disease control” value in assay [3] (10 mg/kg) is −11%. The “change of liver to body weight ratio compared with disease control” value in assay [3] (10 mg/kg) is given as “+40%”. For the same compound, the “plasma glucose relative to disease control (in words)” value in assay [3] (10 mg/kg once daily) is “neither OCA nor ELA reduced glucose”. Besides, the “body weight, statistical significance” value in assay [3] (10 mg/kg, day 7 and 12 post-treatment) is on record as “statistically significant (*p<0.05) increase in body weight”. Further, the “weight put on relative to naïve controls at day 21” value in assay [3] (10 mg/kg) is listed as “+43%”. The “liver to body weight ratio” value in assay [3] (10 mg/kg) is listed as 0.092. Moreover, the “decrease of percentage collagen proportion area (CPA), Masson's trichrome staining, liver” value in assay [3] (10 mg/kg) is reported as 54%. For the same compound, the “change in body weight (g), Mean” value in assay [3] (Day 1, 10 mg/kg once daily) stood at 0.00 g; in assay [3] (Day 2, 10 mg/kg once daily) it was 0.70 g; in assay [3] (Day 3, 10 mg/kg once daily), 1.18 g; in assay [3] (Day 4, 10 mg/kg once daily) it was 0.93 g; in assay [3] (Day 5, 10 mg/kg once daily), 1.42 g; in assay [3] (Day 6, 10 mg/kg once daily), 1.31 g. For the same compound, the “change in body weight (g), Mean” value was 1.43 g in assay [3] (Day 7, 10 mg/kg once daily); 1.49 g in assay [3] (Day 8, 10 mg/kg once daily); 1.71 g in assay [3] (Day 9, 10 mg/kg once daily); 1.69 g in assay [3] (Day 10, 10 mg/kg once daily); 1.47 g in assay [3] (Day 11, 10 mg/kg once daily); -0.17 g in assay [3] (Day 12, 10 mg/kg once daily). The “change in body weight (g), Mean” value in assay [3] (Day 13, 10 mg/kg once daily) worked out at 1.73 g; in assay [3] (Day 14, 10 mg/kg once daily) it was 1.96 g; in assay [3] (Day 15, 10 mg/kg once daily), 2.00 g; in assay [3] (Day 16, 10 mg/kg once daily), 1.64 g; in assay [3] (Day 17, 10 mg/kg once daily) it was 1.82 g; in assay [3] (Day 18, 10 mg/kg once daily) it was 2.16 g. In addition, the “change in body weight (g), Mean” value is listed as 2.26 g in assay [3] (Day 19, 10 mg/kg once daily); 1.88 g in assay [3] (Day 20, 10 mg/kg once daily); 2.22 g in assay [3] (Day 21, 10 mg/kg once daily).

`O=C(O)CCc1ccc2c3cc(-n4ccnc4)ccc3n(-c3ccc(Cl)cc3)c2c1` [Compound 22]: on GSNOR enzyme [1] (setting [4]), the inhibition at 20 µM is 81.4%.

On to `NC(=O)CCn1c2ccc(-n3ccnc3)cc2c2cc(F)c(C(=O)O)cc21` [Compound E1, 9-(3-amino-3-oxopropyl)-3-fluoro-6-(1H-imidazol-1-yl)-9H-carbazole-2-carboxylic acid], for which, at GSNOR enzyme [1] (setting [5]), the inhibition at 20 µM stood at 18%.

As for `NC(=O)CCn1c2cc(Cn3ccnc3)ccc2c2ccc(C(=O)O)cc21` [Compound 8, 9-(3-amino-3-oxopropyl)-7-[(1H-imidazol-1-yl)methyl]-9H-carbazole-2-carboxylic acid], the inhibition at 20 µM at GSNOR enzyme [1] (setting [5]) and on GSNOR enzyme [1] (setting [4]) was 80% each time. Besides, at GSNOR enzyme [2], the IC50 fell in the range of 1 to 5 µM.

For `COc1ccc(-n2c3ccc(-n4ccnc4)cc3c3ccc(CCC(=O)O)cc32)cc1` [Compound 24], at GSNOR enzyme [1] (setting [4]), the inhibition at 20 µM stood at 90%.

Consider `N#Cc1ccc(-n2c3ccc(-n4ccnc4)cc3c3ccc(CCC(=O)O)cc32)cc1` [Compound 18], for which the inhibition at 20 µM at GSNOR enzyme [1] (setting [4]) stood at 72.4%. Also, the IC50 at GSNOR enzyme [2] was greater than 5 µM.

For the compound `CC[C@H]1[C@@H](O)[C@@H]2[C@H](CC[C@]3(C)[C@@H]([C@H](C)CCC(=O)O)CC[C@@H]23)[C@@]2(C)CC[C@@H](O)C[C@@H]12` [Obeticholic acid, reference compound], the NAS in assay [3] (10 mg/kg) is given as 3.20. Also, the “ORO (Oil-Red-O) steatosis score relative to disease control” value in assay [3] (10 mg/kg) is −1%. For the same compound, the “change of liver to body weight ratio compared with disease control” value in assay [3] (10 mg/kg) is on record as −11%. Also, the “weight put on relative to naïve controls at day 21” value in assay [3] (10 mg/kg) is listed as “+28%”. In assay [3] (10 mg/kg), the “liver to body weight ratio” value is 0.058. In addition, the “decrease of percentage collagen proportion area (CPA), Masson's trichrome staining, liver” value in assay [3] (10 mg/kg) is on record as 50%. Besides, the “change in body weight (g), Mean” value is reported as 0.00 g in assay [3] (Day 1, 10 mg/kg once daily); 0.43 g in assay [3] (Day 2, 10 mg/kg once daily); 0.57 g in assay [3] (Day 3, 10 mg/kg once daily); 0.43 g in assay [3] (Day 4, 10 mg/kg once daily); 0.45 g in assay [3] (Day 5, 10 mg/kg once daily); 0.78 g in assay [3] (Day 6, 10 mg/kg once daily). Moreover, the “change in body weight (g), Mean” value in assay [3] (Day 7, 10 mg/kg once daily) is reported as 0.58 g; in assay [3] (Day 8, 10 mg/kg once daily) it was 0.89 g; in assay [3] (Day 9, 10 mg/kg once daily) it was 0.85 g; in assay [3] (Day 10, 10 mg/kg once daily), 1.06 g; in assay [3] (Day 11, 10 mg/kg once daily) it was 0.78 g; in assay [3] (Day 12, 10 mg/kg once daily) it was 0.06 g. Moreover, the “change in body weight (g), Mean” value was 0.82 g in assay [3] (Day 13, 10 mg/kg once daily); 1.05 g in assay [3] (Day 14, 10 mg/kg once daily); 0.54 g in assay [3] (Day 15, 10 mg/kg once daily); 0.82 g in assay [3] (Day 16, 10 mg/kg once daily); 1.43 g in assay [3] (Day 17, 10 mg/kg once daily); 1.52 g in assay [3] (Day 18, 10 mg/kg once daily). For the same compound, the “change in body weight (g), Mean” value was found to be 1.81 g in assay [3] (Day 19, 10 mg/kg once daily); 1.62 g in assay [3] (Day 20, 10 mg/kg once daily); 1.98 g in assay [3] (Day 21, 10 mg/kg once daily).

For the compound `NC(=O)c1ccc(-n2c3cc(CNc4nccs4)ccc3c3ccc(C(=O)O)cc32)c([N+](=O)[O-])c1` [Compound J1, 9-(4-carbamoyl-2-nitrophenyl)-7-((thiazol-2-ylamino)methyl)-9H-carbazole-2-carboxylic acid], on GSNOR enzyme [1] (setting [5]), the inhibition at 20 µM is 9%.

Regarding `COc1ccc(-n2c3ccc(-n4ccnc4)cc3c3ccc(CCC(=O)O)cc32)c(C)c1` [Compound 25], the inhibition at 20 µM on GSNOR enzyme [1] (setting [4]) was 92%.

Regarding `NC(=O)c1ccc(-n2c3cc(Cn4ccnc4)ccc3c3ccc(C(=O)O)cc32)c([N+](=O)[O-])c1` [Compound 16, 9-(4-aminocarbonyl-2-nitrophenyl)-7-[(1H-imidazol-1-yl)methyl]-9H-carbazole-2-carboxylic acid], the inhibition at 20 µM at GSNOR enzyme [1] (setting [5]) and at GSNOR enzyme [1] (setting [4]) was 89% each time. Moreover, at GSNOR enzyme [2], the concentration for half-maximal inhibition (IC50) is 1 to 5 µM.

The values above are taken from US11655244B2, “Carbazole compounds and methods of use thereof” (GSNO Therapeutics, Inc, priority 2017, dated 2023).
